From patent US6846844B2, “Compounds and compositions for delivering active agents” (Emisphere Technologies, Inc., priority 2000, dated 2005)

Columns and labels:
[1] = Intracolonic delivery of heparin with delivery agent compound, activated partial thromboplastin time (APTT); type: in vivo, Sprague-Dawley rats; details: rats, intracolonic (IC); compound dose 50 mg/kg, heparin dose 25 mg/kg, volume dose 1 ml/kg; five rats; baseline about 20 sec
Method: Intracolonic (IC) dosing solutions containing a delivery agent compound and heparin sodium USP in 25% aqueous propylene glycol were prepared. Either the sodium salt of the delivery agent compound was used or the free acid was converted to the sodium salt with one equivalent of sodium hydroxide. Typically, the delivery agent compound and heparin (about 166-182 IU/mg) were mixed by vortex as dry powders. This dry mixture was dissolved in 25% v/v aqueous propylene glycol, vortexed and placed in a sonicator (about 37° C.). The pH was adjusted to about 7 (6.5 to 8.5) with aqueous NaOH (2N). The dosing solution was sonicated to produce a clear solution. The final volume was adjusted to 3.0 mL. The final delivery agent compound dose, heparin dose and volume dose amounts are listed below in Table 2.
The typical dosing and sampling protocols were as follows. […]
Citrated blood samples were collected by cardiac puncture following the administration of ketamine (88 mg/kg), typically at time=0.25, 0.5, 1.0 and 1.5 hours. Heparin activity was determined by utilizing the activated partial thromboplastin time (APTT) according to the method of Henry, J. B., Clinical Diagnosis and Management by Laboratory Methods, Philadelphia, Pa., W. B. Saunders (1979). […]

melting point [°C] | SMILES | Mean Peak APTT (sec) ± SD [1] [s]
171 to 173 | Cc1c(Cl)cc(NC(=O)CC(C)CC(=O)O)c(O)c1Cl (stereo not drawn) [Compound 1, 3R-5-[(3,5-dichloro-2-hydroxy-4-methylphenyl)amino]-3-methyl-5-oxopentanoic acid] | 205.8 ± 32.4
117 to 118 | Cc1ccc(NC(=O)C[C@@H](C)CC(=O)O)c(O)c1 [Compound 2, (3R)-5-[(2-hydroxy-4-methylphenyl)amino]-3-methyl-5-oxo-pentanoic acid] | –
